Results: US10010547B2 (CASCADIAN THERAPEUTICS, INC., priority 2014, dated 2018)
pIC50: −log10 of the molar value. Counter-ions that a name gives are not always drawn. Like-named read-outs stand apart in the source and are kept apart here.

Columns and labels:
Chk-1 kinase = Chk-1 kinase (Homo sapiens (Human), UniProt O14757); assay: Chk-1 Kinase Inhibiting Activity (33P-ATP filter assay, CHKtide substrate); format: biochemical; details: against Chk-1 kinase; read-out: IC50
Summary of the method: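 Full-length N-terminal GST-tagged human Chk-1 from insect cells, 0.5 nM final, with 20 μM peptide substrate and 33P-ATP in HEPES pH 7.5 buffer with 1% DMSO. Reaction ran 120 minutes at room temperature; incorporated radioactivity captured on P81 filters and counted for IC50.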

MIA PaCa-2 cells = assay: Gemcitabine Combination Cell Assay (Cell Titer Glo); format: cell-based; details: for pIC50: Chk1 inhibitor alone, read-out: Chk1 IC50; for pIC50 / 10xLS / 2xLS: MIA PaCa-2 cells, 72 h; for 10xLS: approximate concentration of Chk1 inhibitor that results in a 10-fold reduction in the IC50 of gemcitabine alone; for 2xLS: approximate concentration of Chk1 inhibitor that results in a two-fold reduction in the IC50 of gemcitabine alone
Summary of the method: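 MIA PaCa-2 cells were treated 72 h with half-log dilutions of Chk1 inhibitor (top 3000 nM) and gemcitabine (top 100 nM), alone and in full matrix; viability by CellTiter-Glo luminescence. IC50s from four-parameter fit; Chk1 inhibitor concentrations giving two- and ten-fold lowering of gemcitabine IC50 were estimated.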

Chk-1 kinase, sequence (O14757 whole entry): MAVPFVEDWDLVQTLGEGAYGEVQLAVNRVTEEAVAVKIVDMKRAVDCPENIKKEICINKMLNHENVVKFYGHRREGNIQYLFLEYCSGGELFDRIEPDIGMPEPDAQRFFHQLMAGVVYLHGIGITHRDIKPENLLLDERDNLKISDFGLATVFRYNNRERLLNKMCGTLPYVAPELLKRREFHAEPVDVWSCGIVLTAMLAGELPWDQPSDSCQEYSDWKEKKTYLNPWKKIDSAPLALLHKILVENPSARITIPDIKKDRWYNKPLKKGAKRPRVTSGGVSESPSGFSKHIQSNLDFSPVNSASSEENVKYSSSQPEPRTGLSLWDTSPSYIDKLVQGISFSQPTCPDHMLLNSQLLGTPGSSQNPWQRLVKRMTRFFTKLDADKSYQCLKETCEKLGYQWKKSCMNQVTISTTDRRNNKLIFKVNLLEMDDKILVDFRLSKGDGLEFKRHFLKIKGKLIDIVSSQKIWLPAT

Row | pIC50 (Chk-1 kinase) | pIC50 (MIA PaCa-2 cells; Homo sapiens) | SMILES | 10xLS (MIA PaCa-2 cells) [nM] | 2xLS (MIA PaCa-2 cells) [nM] | pIC50 (MIA PaCa-2 cells) | IC50 (MIA PaCa-2 cells; Homo sapiens, MIA PaCa-2, 72 h, read-out: Chk1 IC50 (nM)) [nM]
1 | < 7.00 | < 5.52 | COC(=O)c1cnc(Nc2cc(-c3ccc(C4CCNCC4)cc3OC)[nH]n2)cn1 [Example 71, methyl 5-[[5-[2-methoxy-4-(4-piperidyl)phenyl]-1H-pyrazol-3-yl]amino]pyrazine-2-carboxylate] | >3000 | >3000 |  | 
2 | 10.29 | 6.71 | COCCN1CCC(c2ccc(-c3cc(Nc4cnc(C#N)cn4)n[nH]3)c(OC)c2)CC1 [Example 89, 5-[[5-[2-methoxy-4-[1-(2-methoxyethyl)-4-piperidyl]phenyl]-1H-pyrazol-3-yl]amino]pyrazine-2-carbonitrile] | 100 | <3 |  | 
3 | 9.92 | 6.58 | COc1cc(N2CCCN(C)CC2)ccc1-c1cc(Nc2cnc(C#N)cn2)n[nH]1 [Example 23, 5-[[5-[2-methoxy-4-(4-methyl-1,4-diazepan-1-yl)phenyl]-1H-pyrazol-3-yl]amino]pyrazine-2-carbonitrile] | <100 | <3 |  | 
4 | 9.85 | 6.87 | COc1cc(N2CCN(C)CC2)cc(OC)c1-c1cc(Nc2cnc(C#N)cn2)n[nH]1 [Example 122, 5-[[5-[2,6-dimethoxy-4-(4-methylpiperazin-1-yl)phenyl]-1H-pyrazol-3-yl]amino]pyrazine-2-carbonitrile] | <100 | 3 |  | 
5 | 9.55 | 6.45 | COc1cc(CN(C)C2CCOC2)ccc1-c1cc(Nc2cnc(C#N)cn2)n[nH]1 (centres unmarked) [Example 73, 5-[[5-[2-methoxy-4-[[methyl(tetra hydrofuran-3-yl)amino]methyl]phenyl]-1H-pyrazol-3-yl]amino]pyrazine-2-carbonitrile] | 300 | 10 |  | 
6 | 10.28 | 6.61 | COc1cc(CN(C)C(C)C)ccc1-c1cc(Nc2cnc(C#N)cn2)n[nH]1 [Example 100, 5-[[5-[4-[[isopropyl(methyl)amino]methyl]-2-methoxy-phenyl]-1H-pyrazol-3-yl]amino]pyrazine-2-carbonitrile] | <100 | 3 |  | 
7 | 10.00 | 6.23 | COc1cc(CN[C@@H]2CCOC2)ccc1-c1cc(Nc2cnc(C#N)cn2)n[nH]1 [Example 131, 5-[[5-[2-methoxy-4-[[[(3R)-tetrahydrofuran-3-yl]amino]methyl]phenyl]-1H-pyrazol-3-yl]amino]pyrazine-2-carbonitrile] | 100 | 3 |  | 
8 | 9.96 | 6.74 | COc1cc(CNC2CCN(C)CC2)ccc1-c1cc(Nc2cnc(C#N)cn2)n[nH]1 [Example 37, 5-[[5-[2-methoxy-4-[[(1-methyl-4-piperidyl)amino]methyl]phenyl]-1H-pyrazol-3-yl]amino]pyrazine-2-carbonitrile] | <100 | 3 |  | 
9 | 11.38 | 6.60 | COc1cc(NC2CCN(C(C)C)CC2)ccc1-c1cc(Nc2cnc(C#N)cn2)n[nH]1 [Example 112, 5-[[5-[4-[(1-isopropyl-4-piperidyl)amino]-2-methoxy-phenyl]-1H-pyrazol-3-yl]amino]pyrazine-2-carbonitrile] | 100 | <3 |  | 
10 | 8.82 | 5.69 | COc1cc(C2CCOCC2)ccc1-c1cc(Nc2cnc(C#N)cn2)n[nH]1 [Example 48, 5-[[5-(2-methoxy-4-tetrahydropyran-4-yl-phenyl)-1H-pyrazol-3-yl]amino]pyrazine-2-carbonitrile] | 1000 | 100 |  | 
11 | 10.66 | 6.84 | COc1cc(C2CN(C)C2)ccc1-c1cc(Nc2cnc(C#N)cn2)n[nH]1 [Example 65, 5-[[5-[2-methoxy-4-(1-methylazetidin-3-yl)phenyl]-1H-pyrazol-3-yl]amino]pyrazine-2-carbonitrile] | <100 | 3 |  | 
12 | 6.64 | < 5.52 | COc1cc(C2CCNCC2)ccc1-c1cc(Nc2cnc(C)cn2)n[nH]1 [Example 55, N-[5-[2-methoxy-4-(4-piperidyl)phenyl]-1H-pyrazol-3-yl]-5-methyl-pyrazin-2-amine] | >3000 | 1000 |  | 
13 | 9.48 | 6.39 | COc1cc(CNC2CC2)ccc1-c1cc(Nc2cnc(C#N)cn2)n[nH]1 [Example 91, 5-[[5-[4-[(cyclopropylamino)methyl]-2-methoxy-phenyl]-1H-pyrazol-3-yl]amino]pyrazine-2-carbonitrile] | <100 | <3 |  | 
14 | 9.85 | 6.73 | COc1cc(C2CCCN(C)C2)ccc1-c1cc(Nc2cnc(C#N)cn2)n[nH]1 (centres unmarked) [Example 40, 5-[[5-[2-methoxy-4-(1-methyl-3-piperidyl)phenyl]-1H-pyrazol-3-yl]amino]pyrazine-2-carbonitrile] | 30 | <3 |  | 
15 | 9.92 | 6.62 | COc1cc(C2(F)CCN(C(C)C)CC2)ccc1-c1cc(Nc2cnc(C#N)cn2)n[nH]1 [Example 86, 5-[[5-[4-(4-fluoro-1-isopropyl-4-piperidyl)-2-methoxy-phenyl]-1H-pyrazol-3-yl]amino]pyrazine-2-carbonitrile] | <100 | <3 |  | 
16 | 9.60 | 6.86 | CCN1CCC(F)(c2ccc(-c3cc(Nc4cnc(C#N)cn4)n[nH]3)c(OC)c2)CC1 [Example 85, 5-[[5-[4-(1-ethyl-4-fluoro-4-piperidyl)-2-methoxy-phenyl]-1H-pyrazol-3-yl]amino]pyrazine-2-carbonitrile] | 100 | 3 |  | 
17 | 9.82 | 6.74 | COc1cc(O[C@@H]2CCN(C(C)C)C2)ccc1-c1cc(Nc2cnc(C#N)cn2)n[nH]1 [Example 95, 5-[[5-[4-[(3R)-1-isopropylpyrrolidin-3-yl]oxy-2-methoxy-phenyl]-1H-pyrazol-3-yl]amino]pyrazine-2-carbonitrile] | <100 | <3 |  | 

Row | SMILES | pIC50 (Chk-1 kinase) | pIC50 (MIA PaCa-2 cells; Homo sapiens) | 10xLS (MIA PaCa-2 cells) [nM] | 2xLS (MIA PaCa-2 cells) [nM] | pIC50 (MIA PaCa-2 cells) | IC50 (MIA PaCa-2 cells; Homo sapiens, MIA PaCa-2, 72 h, read-out: Chk1 IC50 (nM)) [nM]
18 | COc1cc(COC2CCN(C)CC2)ccc1-c1cc(Nc2cnc(C#N)cn2)n[nH]1 [Example 113, 5-[[5-[2-methoxy-4-[(1-methyl-4-piperidyl)oxymethyl]phenyl]-1H-pyrazol-3-yl]amino]pyrazine-2-carbonitrile] | 9.57 |  | 300 | 3 | 6.27 | 
19 | CCN1CC[C@@H](OCc2ccc(-c3cc(Nc4cnc(C#N)cn4)n[nH]3)c(OC)c2)C1 [Example 140, 5-[[5-[4-[[(3R)-1-ethylpyrrolidin-3-yl]oxymethyl]-2-methoxy-phenyl]-1H-pyrazol-3-yl]amino]pyrazine-2-carbonitrile hydrochloride] | 10.68 |  | <300 | <10 |  | 618
20 | COc1cc(C2CCN(C)CC2)ccc1-c1cc(Nc2ccc(C#N)nc2)n[nH]1.Cl [Example 24, 5-[[5-[2-methoxy-4-(1-methyl-4-piperidyl)phenyl]-1H-pyrazol-3-yl]amino]pyridine-2-carbonitrile hydrochloride] | 9.62 | 6.03 | 300 | 10 |  | 
